Source: patent US6054462A, “Intranasal antimigraine compositions” (Janssen Pharmaceutica, N.V., priority 1994, dated 2000)

Tests used:
5-HT1 -like receptors = conditions: in vitro and in vivo animal experiments; cited from earlier work
clinical = assay: clinical; design: species or system healthy volunteers; conditions: human, in vivo
Method: A double-blind, randomized, cross-over trial in healthy volunteers during four treatment days were set up. All volunteers (n=8) participated in the four sessions of the trial, in which the above formulation was tested. On each treatment day volunteers received a single intranasal administration of 1 mg of a formulation of (-)-(R)-N-[(3,4-dihydro-2H-1-benzopyran-2-yl)methyl]-N'-(1,4,5,6-tetrahydro-2-pyrimidinyl)-1,3-propanediamine dihydrochloride as described in example 1. Unidose nasal sprayers at a concentration of 10 mg/ml, which provided a volume of 100 μl per spray were used. The composition was administered to the volunteers as a single spray in one nostril. Blood was sampled over 24 hours for pharmacokinetic analysis. Venous 10 ml blood samples for drug analysis were taken at 0, 5, 10, 20, 30, 60, 90, 120, 240 and 360 minutes and 24 hours after drug administration. The blood samples were transferred to heparinized tubes and centrifuged within 30 minutes after collection. Separated plasma was transferred to polystyrene tubes adequately labelled with the trial number, subject number and initials, time and date of sampling.
Concentrations of (-)-(R)-N-[(3,4-dihydro-2H-1-benzopyran -2-yl)methyl]-N'-(1,4,5,6-tetrahydro-2-pyrimidinyl)-1,3-propanediamine dihydrochloride were determined by radio immunoassay. […]

Structure (SMILES) | arterial vasoconstrictor response arises through activation of 5-HT1 -like receptors (5-HT1 -like receptors) | vasoconstrictory properties (5-HT1 -like receptors) | bioavailability at 24 h (clinical)
c1ccc2c(c1)CCC(CNCCCNC1=NCCCN1)O2 (stereo not drawn) [N-[(3,4-dihydro-2H-1-benzopyran-2-yl)methyl]-N'-(1,4,5,6-tetrahydro-2-pyrimidinyl)-1,3-propanediamine] | agonistic activation of 5-HT1 -like receptors | highly vasoconstrictory properties | 
Cl.Cl.c1ccc2c(c1)CC[C@H](CNCCCNC1=NCCCN1)O2 [active ingredient, (-)-(R)-N-[(3,4-dihydro-2H-1-benzopyran-2-yl)methyl]-N'-(1,4,5,6-tetrahydro-2-pyrimidinyl)-1,3-propanediamine dihydrochloride] |  |  | ~35%
